Reference: patent US8592419B2, “Ceramides and apoptosis-signaling ligand” (MUSC Foundation for Research Development, priority 2004, dated 2013)
Where a SMILES comes first, the peptide text is derived from it. [ ]: non-standard residue; d: D form. The star is where a group is joined. Sta = CC(C)C[C@H](N)[C@@H](O)CC(=O)O; Isovaleryl = CC(C)CC(=O)*; Cbz = O=C(OCc1ccccc1)*; CH2F = FC*

Columns and labels:
lysosomes of DU145 cells = assay: Lysosomal stability assay (LysoTracker Red); format: cell-based, human; conditions: DU145 cells, 1 hour; LCL204 10 μM, C6-ceramide 30 μM, B13 20 μM
Description: Lysosoinal stability assay. Lysosomal stability was measured using the fluorescent dye LysoTracker Red (LTR). Cells were seeded overnight in 60 mm plates. The next day, medium was removed and replaced with medium containing 200 nM LTR. Cells were loaded with LTR for 30 minutes at 37° C. LTR was removed and cells were washed once with PBS, then medium containing the treatment was added for the indicated time. After treatment, cells were lifted with trypsin, washed once in PBS, and resuspended in 0.5 mL growth medium. LTR fluorescence was measured using FACS analysis (564-606 nm) as above. A decrease in fluorescence intensity corresponded to an increase in lysosomal pH, and a minimum of 10,000 events were scored for each sample.

DU145 cells [1] = assay: Cell death by MTS assay, ceramide analog combined with AdGFPFasL virus; format: cell-based, human
Description: LCL102, a ceramidase inhibitor, which acts to increasing intracellular ceramide levels by […], were tested in this system. This molecule was highly efficient at activating cell death in DU145 cells at nontoxic doses if combined with AdGFPFasL virus at MOIs achievable in vivo. DU145 cells growing in 96 well plates at 1×10^4 cells/well are treated with either media alone or LCL102 at 2 uM for 48 hours followed by AdGFPFasL for 24 hours at the MOI (5-80). Cell death is assayed by the MTS assay. At 2 uM LCL102 and 5MOI of virus, cell death is amplified 4-fold compared to LCL102 alone (FIG. 14).

DU145 cells [2] = assay: MTS cell viability assay in DU145 cells; format: cell-based, human; conditions: for reproduction of the apoptotic consequences of LCL204-induced lysosomal rupture: agents that strictly alter lysosomal pH
Description: MTS cytotoxicity assays for LCL204 treatments. Cell viability was determined using the CellTiter 96 AQueous One Solution Cell Proliferation Assay (Promega; Madison, Wis., USA). 1×10^4 cells per well were seeded in 96-well plates overnight. The next day media was removed and replaced with either 100 μl media with vehicle control or media containing LCL204 at desired concentrations. Assays were carried out according to manufacturer's instruction as previously described (60). For experiments using enzyme inhibitors and LCL204, media was removed and replaced with 50 μl media containing vehicle only or indicated inhibitor. Cells were pretreated 1 hour at 37° C. before adding 50 μl media containing vehicle, inhibitor only, LCL204 only (2× concentration), or a combination. The remainder of the assay was carried out as described above.

DU145 cells [3] = assay: Effect of doxorubicin on apoptotic resistance of DU145 cells; format: cell-based, human; conditions: 0.2 μg/ml
From the text: The viruses described in Rubinchik et al. had been used under in vivo conditions to treat prostate cancer xenografts. […]. […] One of the limitations in PCa gene therapy is delivery of the therapeutic gene to every cell in the tumor. One way to overcome this is to amplify the response to the delivered gene by taking advantage of the bystander effect. For example, virally-expressed wild-type p53 is capable of inducing apoptosis in many types of cancer cells and is reported to have bystander activity by inducing localized FasL expression which recruits neutrophils infiltration that is believed to play a critical role in the bystander mechanism. In practice, the bystander effect, if activated , will result in regression of a solid tumor in spite of the physician's inability to deliver, by virus or liposome, a therapeutic gene to every cell. […] In the DU145 model of prostate cancer, the inventors determined that resistance to the induction of apoptosis through the Fas receptor signaling pathway is due to overexpression of apoptotic resistance genes including cFLIPs (Hyer et al., Cancer Biology and Therapy 1(4): 405-410, 2002). […] However, expression of apoptotic resistance genes in some cancers, including in the DU145 model, make the cells relatively insensitive to vesicle-mediated bystander activity. To overcome this, a number of different chemotherapeutic drugs and other small molecules were examined for their effect on apoptotic resistance mechanisms. […] This decrease in protein levels may be due to proteasomal degradation or a translational block. Under these conditions, a 20% increase in sensitivity of apoptotic vesicles is observed with 0.2 μg/ml doxorubicin. […]

L929 cells = assay: TNFα-induced PGE2 release; format: cell-based; conditions: TNFα-treated L929 mouse fibroblast cells, preliminary data
From the text: Interleukin-1 is a major inducer of inflammation and TNF is an important regulator of the reaction. Both cytokines can activate ceramidase, and thus inhibiting the activity of ceramidase can result in an anti-inflammatory effect. This may involve the prevention of the formation of sphingosine and sphingosine phosphate which have pro-inflammatory effects. Also, inhibition of ceramidase may prevent the hyperproliferation of immune cells that are important for inflammation. […] The release of PGE2 is also shown to be inhibited by D-(N-myristolyamino)-1-phenyl-1-propanol), D-MAPP, which is an inhibitor of one of the ceramidase. This observation may be important for inhibiting inflammatory reactions that occur in conditions, such as but not limited to rheumatoid arthritis. Thus, it is possible to treat or prevent inflammation by regulating the level of cellular ceramide using the method of the invention. As discussed above, ceramide level can be increased by administering compounds of the present invention that can inhibit mitochondrial ceramidase.

acid ceramidase (AC) = target: T1, acid ceramidase (AC) (Homo sapiens, UniProt Q13510); assay: Immunoblot of acid ceramidase protein; format: cell-based; conditions: DU145 cells, one hour pretreatment, then LCL204 10 μM 6 hours
T1 construct: endogenous in cells
T1 sequence (Q13510 22-395): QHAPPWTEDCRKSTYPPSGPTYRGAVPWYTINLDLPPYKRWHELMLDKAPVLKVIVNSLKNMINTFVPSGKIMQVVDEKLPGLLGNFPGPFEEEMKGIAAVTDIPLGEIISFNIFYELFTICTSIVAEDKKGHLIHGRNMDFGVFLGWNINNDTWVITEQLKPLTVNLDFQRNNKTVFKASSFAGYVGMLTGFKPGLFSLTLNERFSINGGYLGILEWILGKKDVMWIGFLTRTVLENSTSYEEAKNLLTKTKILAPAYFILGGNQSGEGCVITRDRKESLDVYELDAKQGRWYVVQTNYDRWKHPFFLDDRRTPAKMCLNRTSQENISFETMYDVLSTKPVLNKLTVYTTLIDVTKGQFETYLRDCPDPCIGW
Description: (§1) Immunoblot analysis. Cells were seeded in 60mm plates as described above and treated accordingly. Cells were lifted by gently scraping the plates, washed once with ice cold PBS and then lysed in lysis buffer (PBS, 1% Triton X-100, 10% glycerol) containing protease inhibitors pepstatin A (0.5 μg/ml), leupeptin (0.5 μg/ml), aprotinin (5 μg/ml), and PMSF (100 μg/ml) for 10 minutes on ice. Insoluble material was removed by centrifugation at 14,000 rpm for 15 minutes at 4° C. The supernatants were then supplemented with SDS at a final concentration of 2% and stored at −80° C. Protein concentrations were determined using the DC Protein Assay (BioRad Laboratories; Hercules, CA, USA) according to the manufacturer's instructions. 50 μg of protein per sample (unless otherwise indicated) were separated on NuPAGE 4-12% Bis-Tris gels (Invitrogen; Carlsbad, CA, USA) and transferred to nitrocellulose membranes (BioRad). Following transfer, membranes were blocked for 1 hour at room temperature in Tris-buffered saline (TBS) containing 0.1% Tween-20 and 5% nonfat dry milk and incubated overnight at 4° C. with primary antibody at a dilution of 1:2,000(actin), 1:1,000(cytochrome c, COX IV, Bax, Bak, p53, p38, P-p38), 1:500(P-JNK, JNK), 1:250 (AC, p73), or 1:400(LAMP-1, cathepsin B). Overnight incubations were performed in 5% milk in TBS-Tween. Following overnight incubation, membranes were washed three times for 10 minutes each in TBS-Tween and incubated for 1 hour at room temperature with secondary antibody in 5% milk TBS-Tween at a dilution 1:5,000 (goat anti-mouse IgG) or 1:50,000 (goat anti-rabbit). Membranes were then washed three times more and incubated for 5 minutes at room temperature with Super Signal HRP substrate (Pierce Biotechnology Inc.; Rockford, IL, USA).

PUMA = assay: Immunoblot of PUMA; format: cell-based, human; conditions: PPC-1/pcDNA3 cells, 40 μM SP600125 with LCL204
Description: as §1

ASMase = target: T2, ASMase (Homo sapiens, UniProt P17405); assay: Acid sphingomyelinase activity assay; format: cell-based; conditions: DU145 cells, 2-hour LCL204 treatment
T2 construct: DU145 cells were lysed in 50 mM Tris (pH=7.4) using a probe sonicator; endogenous in cells; host or cells: DU145 (lysate of treated cells)
T2 sequence (P17405 47-631): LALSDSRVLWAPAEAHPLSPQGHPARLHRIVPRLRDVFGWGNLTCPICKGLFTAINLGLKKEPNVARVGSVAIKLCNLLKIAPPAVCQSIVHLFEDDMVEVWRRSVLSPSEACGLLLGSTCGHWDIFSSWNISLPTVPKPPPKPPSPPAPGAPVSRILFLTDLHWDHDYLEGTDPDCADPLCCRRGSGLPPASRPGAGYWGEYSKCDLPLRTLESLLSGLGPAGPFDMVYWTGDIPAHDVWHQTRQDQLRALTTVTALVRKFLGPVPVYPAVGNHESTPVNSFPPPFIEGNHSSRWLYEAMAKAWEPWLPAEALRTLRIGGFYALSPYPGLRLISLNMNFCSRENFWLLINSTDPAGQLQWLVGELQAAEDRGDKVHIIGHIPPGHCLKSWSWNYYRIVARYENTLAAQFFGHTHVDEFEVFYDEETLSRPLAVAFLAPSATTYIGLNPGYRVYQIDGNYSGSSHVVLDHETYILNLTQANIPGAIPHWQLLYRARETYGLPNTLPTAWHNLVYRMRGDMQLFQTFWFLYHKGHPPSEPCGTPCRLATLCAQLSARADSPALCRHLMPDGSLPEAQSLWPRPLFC
Description: Acid Sphingomyelinase Activity Assay. DU145 cells were lysed in 50 mM Tris (pH=7.4) using a probe sonicator. Cellular debris was removed after centrifugation at 3000×g for 10 minutes. Proteins (50 μg) were adjusted to a total volume of 100 μl and the reaction was started by adding 100 μl of the reaction mixture containing 1 mM EDTA, 250 mM sodium acetate (pH 5.0), 100 μM [choline-methyl-^14C] sphingomyelin and 0.1% Triton X. After incubation at 37° C. for one hour, the reaction was stopped by adding 1.5 ml of chloroform/methanol (2:1) and then 200 μl of water. Phases were separated by centrifugation at 2000×g for 5 minutes. Quantitation of the amount of released radioactive phosphocholine was determined by subjecting 400 μl of the upper phase to scintillation counting.

Compound: CCCCCCCCCCCCCC(=O)N[C@H](CO)[C@H](O)c1ccc([N+](=O)[O-])cc1 [B13, reference compound]
- shift in LTR fluorescence (rise in lysosomal pH) (lysosomes of DU145 cells): did not have this effect

Compound: CCCCCCCCCCCCCCN[C@H](CO)[C@H](O)c1ccc([N+](=O)[O-])cc1 [LCL102, (1R,2R)-2-N-Tetradecylamino-1-(4-nitro-phenyl)-1,3-propandiol]
- amplification of cell death compared to LCL102 alone (DU145 cells [1]; 2 uM for 48 hours, then AdGFPFasL 5MOI for 24 hours): 4 fold
- increase of the ability of AdGFPFasL to kill tumor cells (DU145 cells [1]; in vitro, subtoxic doses): as much as ten-fold

Compound: CO/C1=C\C(C)=C\[C@@H](C)[C@@H](O)[C@@H](C)C/C(C)=C/C=C/[C@H](OC)[C@@H]([C@@H](C)[C@@H](O)[C@H](C)[C@@]2(O)C[C@@H](O)[C@H](C)[C@@H](C(C)C)O2)OC1=O [bafilomycin A1]
- reproduction of the apoptotic consequences of LCL204-induced lysosomal rupture (DU145 cells [2]): could not be reproduced

Compound: Cl.N [NH4Cl]
- reproduction of the apoptotic consequences of LCL204-induced lysosomal rupture (DU145 cells [2]): could not be reproduced

Compound: COc1cccc2c1C(=O)c1c(O)c3c(c(O)c1C2=O)C[C@@](O)(C(=O)CO)C[C@@H]3O[C@H]1C[C@H](N)[C@H](O)[C@H](C)O1 [Doxorubicin]
- cFLIP protein expression (DU145 cells [3]): decreases expression of cFLIP protein
- increase in sensitivity of apoptotic vesicles (DU145 cells [3]): 20%
- toxicity to DU145 cells (DU145 cells [3]): toxic to DU145 cells at 48-72 hours

Compound: CCCCCCCCCCCCC/C=C/[C@@H](O)[C@H](CO)NC(=O)CCCCC [C6-ceramide, reference compound]
- shift in LTR fluorescence (rise in lysosomal pH) (lysosomes of DU145 cells): did not have this effect

Compound: CCCCCCCCCCCCCC(=O)NC(C)C(O)c1ccccc1 [D-MAPP]
- release of PGE2 (L929 cells): inhibited

Compound: CC(C)CC(=O)N[C@H](C(=O)N[C@H](C(=O)N[C@@H](CC(C)C)[C@@H](O)CC(=O)N[C@@H](C)C(=O)N[C@@H](CC(C)C)[C@@H](O)CC(=O)O)C(C)C)C(C)C [pepstatin A] (Isovaleryl-VV[Sta]A[Sta]-OH)
- effect of protease inhibitor pretreatment on LCL204-induced AC protein loss (acid ceramidase (AC)): no effect

Compound: Oc1c2ccccc2c2c3c(cccc13)N=N2 [SP600125, reference compound]
- time until which LCL204-induced PUMA induction was delayed (PUMA): approximately 6 hours

Compound: CC(C)C[C@@H](C=O)NC(=O)[C@H](CC(C)C)NC(=O)[C@H](CC(C)C)NC(=O)OCc1ccccc1 [MG132] (Cbz-Leu-Leu-Leu-aldehyde)
- effect of protease inhibitor pretreatment on LCL204-induced AC protein loss (acid ceramidase (AC)): blocked AC degradation

Compound: CCCNC(=O)[C@H]1O[C@@H]1C(=O)N[C@H](C(=O)N1CCC[C@H]1C(=O)OC)[C@@H](C)CC [CA074Me, reference compound]
- effect of protease inhibitor pretreatment on LCL204-induced AC protein loss (acid ceramidase (AC)): blocked AC degradation
- effect on LCL204-induced loss of ASMase activity (ASMase): loss of activity was blocked

Compound: COC(=O)C[C@H](NC(=O)[C@H](C)NC(=O)[C@@H](NC(=O)OCc1ccccc1)C(C)C)C(=O)CF [zVAD-fmk] (Cbz-Val-Ala-Asp(OMe)-CH2F)
- effect of protease inhibitor pretreatment on LCL204-induced AC protein loss (acid ceramidase (AC)): blocked AC degradation
- LCL204-mediated cell death after pre-treatment with caspase inhibitor (DU145 cells [2]; pre-treated one hour, then LCL204 24 hours, especially below 15 μM LCL204): cell death was substantially reduced
